# Data published in the NIST ThermoML archive (doi:10.1021/je401020e).
# Numbers after ± are expanded uncertainties.
# Key:
# [1] = Liquid; for mass density: 298.15 K, 101.33 kPa, Vibrating tube method; for vapor or sublimation pressure: Closed cell (Static) method
# [2] = refractive index (Na D-line) (dimensionless); details: 298.15 K; 101.33 kPa; Liquid; Standard Abbe refractometry
compound,measurement,setting,value
"OCCO [1,2-ethanediol]",mass density,[1],1107.92 ± 0.09 kg/m3
same,vapor or sublimation pressure,[1]; 405.97 K,10 ± 0.73 kPa
same,vapor or sublimation pressure,[1]; 406.07 K,10 ± 0.73 kPa
same,vapor or sublimation pressure,[1]; 423.18 K,20 ± 0.99 kPa
same,vapor or sublimation pressure,[1]; 441.92 K,40 ± 1.6 kPa
same,refractive index,[2],1.4312 ± 0.0003
"OCCCCO [1,4-butanediol]",mass density,[1],1013.04 ± 0.05 kg/m3
same,vapor or sublimation pressure,[1]; 437.48 K,10 ± 0.73 kPa
same,vapor or sublimation pressure,[1]; 454.63 K,20 ± 0.99 kPa
same,vapor or sublimation pressure,[1]; 473.22 K,40 ± 1.6 kPa
same,refractive index,[2],1.4449 ± 0.0003
OCCOCCOCCO [triethylene glycol],mass density,[1],1120.7 ± 0.1 kg/m3
same,vapor or sublimation pressure,[1]; 480.39 K,10 ± 0.88 kPa
same,vapor or sublimation pressure,[1]; 500.97 K,20 ± 1.2 kPa
same,vapor or sublimation pressure,[1]; 524.64 K,40 ± 2 kPa
same,refractive index,[2],1.4457 ± 0.0003
OCCOCCO [diethylene glycol],mass density,[1],1112.56 ± 0.12 kg/m3
same,vapor or sublimation pressure,[1]; 445.07 K,10 ± 0.82 kPa
same,vapor or sublimation pressure,[1]; 445.47 K,10 ± 0.81 kPa
same,vapor or sublimation pressure,[1]; 464.36 K,20 ± 1.1 kPa
same,vapor or sublimation pressure,[1]; 485.33 K,40 ± 1.8 kPa
same,refractive index,[2],1.4452 ± 0.0003
